What was measured:
[1] = molecular target: T1, Tyrosine-protein kinase JAK3 (Homo sapiens, UniProt P52333); assay: Inhibition of JAK3 (unknown origin) by mobility shift assay
T1 sequence (P52333 whole entry): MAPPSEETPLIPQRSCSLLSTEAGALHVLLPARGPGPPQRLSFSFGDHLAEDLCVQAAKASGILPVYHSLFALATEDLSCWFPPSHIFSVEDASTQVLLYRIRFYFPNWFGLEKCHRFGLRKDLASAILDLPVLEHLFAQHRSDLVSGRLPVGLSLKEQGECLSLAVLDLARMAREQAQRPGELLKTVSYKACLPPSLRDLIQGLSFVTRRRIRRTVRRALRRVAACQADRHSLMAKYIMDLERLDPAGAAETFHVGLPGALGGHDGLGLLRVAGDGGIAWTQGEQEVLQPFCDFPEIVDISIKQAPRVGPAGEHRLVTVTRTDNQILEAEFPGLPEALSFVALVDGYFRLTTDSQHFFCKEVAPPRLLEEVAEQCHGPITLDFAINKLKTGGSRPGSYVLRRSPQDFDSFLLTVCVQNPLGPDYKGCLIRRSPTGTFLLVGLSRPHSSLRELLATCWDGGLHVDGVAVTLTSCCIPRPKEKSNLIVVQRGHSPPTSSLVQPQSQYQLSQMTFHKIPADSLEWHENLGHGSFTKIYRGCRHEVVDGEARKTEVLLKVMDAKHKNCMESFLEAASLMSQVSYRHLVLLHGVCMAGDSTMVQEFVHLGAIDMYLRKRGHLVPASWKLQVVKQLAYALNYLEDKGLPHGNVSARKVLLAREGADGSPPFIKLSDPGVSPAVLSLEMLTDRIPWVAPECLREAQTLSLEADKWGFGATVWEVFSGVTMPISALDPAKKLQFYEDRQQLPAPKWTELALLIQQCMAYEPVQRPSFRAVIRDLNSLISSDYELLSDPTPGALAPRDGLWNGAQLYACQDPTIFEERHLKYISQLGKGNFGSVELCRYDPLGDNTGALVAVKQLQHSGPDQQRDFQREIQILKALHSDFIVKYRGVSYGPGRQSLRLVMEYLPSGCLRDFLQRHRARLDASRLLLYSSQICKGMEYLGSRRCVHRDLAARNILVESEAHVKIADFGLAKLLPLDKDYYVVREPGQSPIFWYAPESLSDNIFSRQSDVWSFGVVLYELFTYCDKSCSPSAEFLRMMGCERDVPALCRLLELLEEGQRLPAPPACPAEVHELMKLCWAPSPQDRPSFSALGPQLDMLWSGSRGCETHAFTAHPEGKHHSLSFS

[2] = molecular target: Focal adhesion kinase 1 (Homo sapiens) (UniProt Q05397); assay: Inhibition of FAK (unknown origin) at 50 ug/ml by Lanthascreen assay relative to control
Homo sapiens = species: Homo sapiens; assay: Inhibition of PKA (unknown origin) at 50 ug/ml by mobility shift assay relative to control
[3] = molecular target: Glycogen synthase kinase-3 beta (Homo sapiens) (UniProt P49841); assay: Inhibition of GSK3b (unknown origin) at 50 ug/ml by mobility shift assay relative to control
[4] = molecular target: RAC-alpha serine/threonine-protein kinase (Homo sapiens) (UniProt P31749); assay: Inhibition of AKT1 (unknown origin) at 50 ug/ml by mobility shift assay relative to control
[5] = molecular target: T2, JAK3 (Tyrosine-protein kinase JAK3) (Homo sapiens, UniProt P52333); assay: Inhibition of JAK3 (unknown origin) at 50 ug/ml by mobility shift assay relative to control; conditions: JAK3 kinase (single protein, unknown origin)
T2 sequence (P52333 whole entry): T1 sequence (P52333 whole entry)

[6] = molecular target: Serine/threonine-protein kinase pim-1 (Homo sapiens) (UniProt P11309); assay: Inhibition of PIM1 (unknown origin) at 50 ug/ml by mobility shift assay relative to control
[7] = molecular target: T3, Tyrosine-protein kinase ZAP-70 (Homo sapiens) (UniProt P43403); assay: Inhibition of ZAP70 (unknown origin) at 50 ug/ml by mobility shift assay relative to control
T3 sequence (whole entry): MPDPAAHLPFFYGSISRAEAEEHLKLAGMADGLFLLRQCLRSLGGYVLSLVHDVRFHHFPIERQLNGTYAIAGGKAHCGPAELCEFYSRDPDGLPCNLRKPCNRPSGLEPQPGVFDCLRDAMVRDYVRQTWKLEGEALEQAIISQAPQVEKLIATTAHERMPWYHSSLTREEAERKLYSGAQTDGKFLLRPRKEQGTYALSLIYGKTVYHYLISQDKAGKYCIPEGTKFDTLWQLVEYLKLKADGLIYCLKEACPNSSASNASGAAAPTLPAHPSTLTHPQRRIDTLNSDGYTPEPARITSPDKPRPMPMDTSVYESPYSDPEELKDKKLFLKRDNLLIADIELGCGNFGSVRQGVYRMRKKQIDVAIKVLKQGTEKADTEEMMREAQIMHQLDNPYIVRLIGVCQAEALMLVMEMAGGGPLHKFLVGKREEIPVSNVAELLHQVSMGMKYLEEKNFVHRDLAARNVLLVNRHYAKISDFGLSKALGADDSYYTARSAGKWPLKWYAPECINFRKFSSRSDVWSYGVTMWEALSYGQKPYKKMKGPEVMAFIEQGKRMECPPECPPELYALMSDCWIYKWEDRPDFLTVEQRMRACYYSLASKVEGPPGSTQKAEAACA

[8] = molecular target: Tyrosine-protein kinase SYK (Homo sapiens) (UniProt P43405); assay: Inhibition of SYK (unknown origin) at 50 ug/ml by mobility shift assay relative to control
[9] = molecular target: ALK tyrosine kinase receptor (Homo sapiens) (UniProt Q9UM73); assay: Inhibition of ALK (unknown origin) at 50 ug/ml by mobility shift assay relative to control
[10] = molecular target: T4, 3-phosphoinositide-dependent protein kinase 1 (Homo sapiens) (UniProt O15530); assay: Inhibition of PDK1 (unknown origin) at 50 ug/ml by mobility shift assay relative to control
T4 sequence (whole entry): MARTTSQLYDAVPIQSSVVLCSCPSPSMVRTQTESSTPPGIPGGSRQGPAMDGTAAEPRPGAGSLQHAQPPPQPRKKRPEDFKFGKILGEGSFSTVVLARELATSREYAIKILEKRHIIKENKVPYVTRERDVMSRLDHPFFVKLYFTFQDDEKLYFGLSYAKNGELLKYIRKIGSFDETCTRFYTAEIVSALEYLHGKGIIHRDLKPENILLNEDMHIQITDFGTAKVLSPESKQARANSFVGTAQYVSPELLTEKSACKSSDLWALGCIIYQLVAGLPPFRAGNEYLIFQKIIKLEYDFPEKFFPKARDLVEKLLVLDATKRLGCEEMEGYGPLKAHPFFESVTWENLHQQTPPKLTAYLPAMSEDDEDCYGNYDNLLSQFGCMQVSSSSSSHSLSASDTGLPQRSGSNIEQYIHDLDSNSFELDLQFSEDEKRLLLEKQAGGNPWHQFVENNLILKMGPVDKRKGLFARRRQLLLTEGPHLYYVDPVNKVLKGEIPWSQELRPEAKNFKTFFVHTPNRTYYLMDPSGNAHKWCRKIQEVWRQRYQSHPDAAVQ

[11] = molecular target: Serine/threonine-protein kinase B-raf (Homo sapiens) (UniProt P15056); assay: Inhibition of BRAF (unknown origin) at 50 ug/ml by Lanthascreen assay relative to control
[12] = molecular target: Protein kinase C theta (Homo sapiens) (UniProt Q04759); assay: Inhibition of PKCtheta (unknown origin) at 50 ug/ml by mobility shift assay relative to control
[13] = molecular target: Proto-oncogene tyrosine-protein kinase Src (Homo sapiens) (UniProt P12931); assay: Inhibition of SRC (unknown origin) at 50 ug/ml by mobility shift assay relative to control
[14] = Inhibition of PKA (unknown origin) by mobility shift assay; design: species or system Homo sapiens

Chain of Serine/threonine-protein kinase pim-1 (Homo sapiens) (P11309 whole entry, looked up): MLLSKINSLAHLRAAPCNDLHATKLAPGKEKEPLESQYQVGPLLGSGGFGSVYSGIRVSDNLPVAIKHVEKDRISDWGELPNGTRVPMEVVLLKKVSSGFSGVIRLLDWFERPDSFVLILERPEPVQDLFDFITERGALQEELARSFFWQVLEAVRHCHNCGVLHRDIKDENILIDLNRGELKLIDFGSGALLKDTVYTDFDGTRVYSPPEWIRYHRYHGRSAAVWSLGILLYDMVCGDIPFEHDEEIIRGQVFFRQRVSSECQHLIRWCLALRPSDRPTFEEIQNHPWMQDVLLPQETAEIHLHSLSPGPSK
Chain of Proto-oncogene tyrosine-protein kinase Src (Homo sapiens) (P12931 2-536 limits assumed): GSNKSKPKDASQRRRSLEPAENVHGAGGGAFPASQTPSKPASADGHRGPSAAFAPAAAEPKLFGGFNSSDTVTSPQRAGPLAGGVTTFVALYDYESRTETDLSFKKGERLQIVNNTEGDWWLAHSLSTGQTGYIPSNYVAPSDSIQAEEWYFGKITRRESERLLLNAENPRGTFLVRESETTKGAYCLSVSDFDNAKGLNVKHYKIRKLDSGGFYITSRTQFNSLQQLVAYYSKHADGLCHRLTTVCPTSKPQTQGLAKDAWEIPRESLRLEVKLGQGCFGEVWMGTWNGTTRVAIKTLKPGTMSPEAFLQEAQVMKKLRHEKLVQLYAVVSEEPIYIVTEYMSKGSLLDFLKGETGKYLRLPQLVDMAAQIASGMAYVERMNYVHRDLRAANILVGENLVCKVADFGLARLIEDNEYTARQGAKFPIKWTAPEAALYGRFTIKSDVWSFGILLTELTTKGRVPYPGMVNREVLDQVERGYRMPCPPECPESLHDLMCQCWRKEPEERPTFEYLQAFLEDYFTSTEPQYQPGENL
Chain of Focal adhesion kinase 1 (Homo sapiens) (Q05397 2-1052 limits assumed): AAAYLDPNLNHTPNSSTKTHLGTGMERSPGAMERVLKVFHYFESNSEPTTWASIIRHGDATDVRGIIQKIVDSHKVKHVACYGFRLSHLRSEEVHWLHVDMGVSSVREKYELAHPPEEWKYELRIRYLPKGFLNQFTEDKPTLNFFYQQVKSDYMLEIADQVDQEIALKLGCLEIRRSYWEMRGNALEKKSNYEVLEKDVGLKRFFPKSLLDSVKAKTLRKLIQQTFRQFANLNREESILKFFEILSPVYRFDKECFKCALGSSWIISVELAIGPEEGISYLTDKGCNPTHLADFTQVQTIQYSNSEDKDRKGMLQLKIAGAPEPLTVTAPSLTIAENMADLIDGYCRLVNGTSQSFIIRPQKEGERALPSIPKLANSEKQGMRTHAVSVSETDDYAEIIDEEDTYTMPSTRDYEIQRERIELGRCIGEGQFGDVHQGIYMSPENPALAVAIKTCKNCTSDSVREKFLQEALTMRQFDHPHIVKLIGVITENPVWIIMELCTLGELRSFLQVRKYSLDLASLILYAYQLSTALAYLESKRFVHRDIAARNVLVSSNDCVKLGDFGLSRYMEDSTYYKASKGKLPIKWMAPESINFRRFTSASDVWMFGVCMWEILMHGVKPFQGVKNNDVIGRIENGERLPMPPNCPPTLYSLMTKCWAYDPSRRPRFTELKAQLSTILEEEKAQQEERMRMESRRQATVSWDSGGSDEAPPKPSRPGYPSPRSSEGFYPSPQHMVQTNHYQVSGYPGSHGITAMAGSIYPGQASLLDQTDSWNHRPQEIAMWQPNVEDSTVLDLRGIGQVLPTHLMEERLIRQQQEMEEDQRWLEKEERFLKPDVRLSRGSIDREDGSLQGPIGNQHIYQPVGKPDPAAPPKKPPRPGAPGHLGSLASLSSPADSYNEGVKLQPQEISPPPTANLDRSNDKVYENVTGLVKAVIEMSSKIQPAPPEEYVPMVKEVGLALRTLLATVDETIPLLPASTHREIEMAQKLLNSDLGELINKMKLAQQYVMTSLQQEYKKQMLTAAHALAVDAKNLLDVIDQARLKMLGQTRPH
Chain of Serine/threonine-protein kinase B-raf (Homo sapiens) (P15056 whole entry): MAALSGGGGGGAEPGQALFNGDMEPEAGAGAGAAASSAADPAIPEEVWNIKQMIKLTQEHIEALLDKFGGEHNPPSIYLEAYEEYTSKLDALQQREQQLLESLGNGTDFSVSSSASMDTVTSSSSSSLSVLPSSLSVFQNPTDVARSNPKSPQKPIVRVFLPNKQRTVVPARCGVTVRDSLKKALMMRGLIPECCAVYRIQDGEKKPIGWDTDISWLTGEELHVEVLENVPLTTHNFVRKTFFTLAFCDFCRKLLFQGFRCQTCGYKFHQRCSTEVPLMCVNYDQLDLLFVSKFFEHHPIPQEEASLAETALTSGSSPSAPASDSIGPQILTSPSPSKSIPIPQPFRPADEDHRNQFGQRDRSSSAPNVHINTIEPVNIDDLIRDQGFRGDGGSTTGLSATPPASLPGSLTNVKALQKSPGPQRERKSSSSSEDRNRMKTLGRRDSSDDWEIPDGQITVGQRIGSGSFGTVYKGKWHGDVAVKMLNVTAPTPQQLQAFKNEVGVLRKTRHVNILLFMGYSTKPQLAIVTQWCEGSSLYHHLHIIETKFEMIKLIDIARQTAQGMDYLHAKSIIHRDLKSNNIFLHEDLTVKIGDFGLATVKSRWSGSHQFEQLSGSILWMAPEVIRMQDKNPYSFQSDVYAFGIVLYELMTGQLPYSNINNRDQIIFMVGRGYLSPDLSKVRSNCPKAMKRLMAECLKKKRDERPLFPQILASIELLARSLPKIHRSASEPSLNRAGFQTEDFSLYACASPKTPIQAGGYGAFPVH
Chain of Glycogen synthase kinase-3 beta (Homo sapiens) (P49841 whole entry, looked up): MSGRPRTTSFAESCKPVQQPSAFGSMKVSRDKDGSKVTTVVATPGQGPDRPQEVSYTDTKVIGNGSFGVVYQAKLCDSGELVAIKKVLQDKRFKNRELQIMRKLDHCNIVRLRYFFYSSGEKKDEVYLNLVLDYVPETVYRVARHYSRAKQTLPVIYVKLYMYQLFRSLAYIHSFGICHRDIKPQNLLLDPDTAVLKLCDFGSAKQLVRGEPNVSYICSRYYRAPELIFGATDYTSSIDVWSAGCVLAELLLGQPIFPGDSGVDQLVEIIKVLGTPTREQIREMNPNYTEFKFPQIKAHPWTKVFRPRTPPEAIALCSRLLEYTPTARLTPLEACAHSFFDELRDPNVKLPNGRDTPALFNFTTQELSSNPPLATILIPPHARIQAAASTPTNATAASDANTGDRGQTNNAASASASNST
Chain of RAC-alpha serine/threonine-protein kinase (Homo sapiens) (P31749 whole entry): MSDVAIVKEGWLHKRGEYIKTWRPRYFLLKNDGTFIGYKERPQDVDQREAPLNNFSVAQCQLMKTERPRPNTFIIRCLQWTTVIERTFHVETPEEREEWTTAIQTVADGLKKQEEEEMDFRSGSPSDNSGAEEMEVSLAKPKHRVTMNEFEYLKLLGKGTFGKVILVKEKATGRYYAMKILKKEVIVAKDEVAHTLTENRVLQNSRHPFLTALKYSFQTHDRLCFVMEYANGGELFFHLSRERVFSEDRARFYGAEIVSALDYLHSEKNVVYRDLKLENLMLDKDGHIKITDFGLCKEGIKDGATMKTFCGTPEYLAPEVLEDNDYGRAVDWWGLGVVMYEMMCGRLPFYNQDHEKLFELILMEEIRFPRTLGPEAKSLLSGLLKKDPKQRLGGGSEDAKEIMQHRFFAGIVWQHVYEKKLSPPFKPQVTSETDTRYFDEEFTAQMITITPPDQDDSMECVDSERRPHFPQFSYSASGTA
Chain of Protein kinase C theta (Homo sapiens) (Q04759 whole entry, looked up): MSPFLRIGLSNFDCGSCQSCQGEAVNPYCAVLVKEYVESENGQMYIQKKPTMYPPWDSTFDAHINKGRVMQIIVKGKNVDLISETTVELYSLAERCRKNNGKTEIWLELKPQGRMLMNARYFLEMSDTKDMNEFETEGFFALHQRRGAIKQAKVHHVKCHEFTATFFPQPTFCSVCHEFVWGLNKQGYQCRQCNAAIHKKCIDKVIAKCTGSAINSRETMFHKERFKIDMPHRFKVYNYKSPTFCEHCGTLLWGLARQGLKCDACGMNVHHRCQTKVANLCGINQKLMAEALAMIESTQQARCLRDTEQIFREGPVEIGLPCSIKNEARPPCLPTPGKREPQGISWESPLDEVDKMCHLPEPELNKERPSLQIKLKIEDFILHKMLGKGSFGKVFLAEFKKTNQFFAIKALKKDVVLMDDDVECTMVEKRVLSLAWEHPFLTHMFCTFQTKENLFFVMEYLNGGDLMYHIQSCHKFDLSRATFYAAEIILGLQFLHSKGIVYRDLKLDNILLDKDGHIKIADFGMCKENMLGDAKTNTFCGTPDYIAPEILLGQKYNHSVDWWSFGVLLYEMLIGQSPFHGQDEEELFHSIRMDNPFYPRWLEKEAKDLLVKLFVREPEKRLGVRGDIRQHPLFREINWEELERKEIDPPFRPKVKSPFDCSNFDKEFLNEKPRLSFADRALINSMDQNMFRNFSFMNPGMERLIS

CC(=O)c1ccc2c(c1)CC[C@H]1[C@@](CO)(C(=O)O)CCC[C@]21C
IC50 [1]: > 100 µM

CC(C)c1cc2c(cc1O)[C@@]1(C)CCC[C@@](C)(C=O)[C@@H]1CC2 [18-OXOFERRUGINOL]
IC50 [1]: > 100 µM

C=C(C)c1ccc2c(c1)CC[C@H]1[C@@](CO)(C(=O)O)CCC[C@]21C
IC50 [1]: > 100 µM

CC(C)(O)c1ccc2c(c1)CC[C@H]1[C@](C)(C(=O)O)CCC[C@]21C
IC50 [1]: > 100 µM

CC(C)c1ccc2c(c1)CC[C@H]1[C@@](CO)(C(=O)O)CCC[C@]21C
IC50 [1]: > 100 µM

CC(C)c1ccc2c(c1)CC[C@H]1[C@](C)(C(=O)O)CCC[C@]21C [DEHYDROABIETIC ACID]
inhibition [2]: 67.1%
inhibition (Homo sapiens): 69.9%
inhibition [3]: 20.1%
inhibition [4]: 53.6%
inhibition at 50 ug/ml [5]: 74.9%
inhibition [6]: 10.7%
inhibition [7]: 52.5%
IC50 [1]: > 100 µM
inhibition [8]: 81%
inhibition [9]: 17.6%
inhibition [10]: 46.1%
inhibition [11]: -7.3%
inhibition [12]: 0.9%
inhibition [13]: 61.2%

CN[C@@H]1C[C@H]2O[C@@](C)([C@@H]1OC)n1c3ccccc3c3c4c(c5c6ccccc6n2c5c31)C(=O)NC4
IC50 [14]: 0.0022 µM

— ChEMBL document CHEMBL4251714, “Isolation, Characterization, and Structure-Activity Relationship Analysis of Abietane Diterpenoids from Callicarpa bodinieri as Spleen Tyrosine Kinase Inhibitors” (J Nat Prod, 2018)
